T/C data for 19 compounds are collected here from PubChem BioAssay AID248 (DTP/NCI, 2004).

The assay concerns L1210 leukemia ip in BDF1 mice, survival T/C. The experiment in a line: NCI In Vivo Anticancer Drug Screen. Data for tumor model L1210 Leukemia (intraperitoneal) in B6D2F1 (BDF1) mice. Conditions: endpoint: mean survival time, higher = longer survival. A digest of the protocol: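 Tumor cells were implanted, animals were treated, and survival was followed. The result divides the treated measurement by the vehicle-control measurement.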

[1] abbreviates: dose: 100.0 mg/kg/injection, schedule: Q04DX003 (ip), vehicle: saline with Tween-80.
Where [2] appears, read: dose: 200.0 mg/kg/injection, schedule: Q04DX003 (ip), vehicle: saline with Tween-80.
[3] abbreviates: dose: 400.0 mg/kg/injection, schedule: Q04DX003 (ip), vehicle: saline with Tween-80.
Where [4] appears, read: dose: 100.0 mg/kg/injection, schedule: Q01DX001 (ip), vehicle: saline.
Setting [5] is: dose: 200.0 mg/kg/injection, schedule: Q01DX001 (ip), vehicle: saline.
[6] abbreviates: dose: 400.0 mg/kg/injection, schedule: Q01DX001 (ip), vehicle: saline.

“And” between values parts separate entries of the source, which are not always exact repeats. Identical values can stand only once. Inconclusive results and toxic doses are left out.

As for `COc1cc(C=Nc2cc(Cl)c(O)c(Cl)c2)ccc1N(CCCl)CCCl`, the T/C is 113 % of control (dose: 1.4 mg/kg/injection, schedule: Q01DX009 (ip), vehicle: carboxymethylcellulose (CMC)); 105 % of control (dose: 2.1 mg/kg/injection, schedule: Q01DX009 (ip), vehicle: carboxymethylcellulose (CMC)); 112 % of control (dose: 5.3 mg/kg/injection, schedule: Q01DX009 (ip), vehicle: carboxymethylcellulose (CMC)); 171 % of control (dose: 10.0 mg/kg/injection, schedule: Q01DX009 (ip), vehicle: carboxymethylcellulose (CMC)); 122 % of control (dose: 11.1 mg/kg/injection, schedule: Q01DX001 (ip), vehicle: carboxymethylcellulose (CMC)); 110 % of control (dose: 12.0 mg/kg/injection, schedule: Q01DX009 (ip), vehicle: carboxymethylcellulose (CMC)). Besides, the T/C was 116 % of control and 123 % of control (dose: 16.6 mg/kg/injection, schedule: Q01DX001 (ip), vehicle: carboxymethylcellulose (CMC)); 88 % of control (dose: 18.0 mg/kg/injection, schedule: Q01DX009 (ip), vehicle: carboxymethylcellulose (CMC)); 122 % of control (dose: 25.0 mg/kg/injection, schedule: Q01DX001 (ip), vehicle: carboxymethylcellulose (CMC)).

In the case of `CCN(CC)CC(OC(=O)C(c1ccccc1)c1ccccc1)C(COC)OC` (stereo unspecified), the T/C is, setting by setting: (dose: 55.0 mg/kg/injection, schedule: Q01DX Z (ip), vehicle: saline) 109 % of control; (dose: 83.0 mg/kg/injection, schedule: Q01DX Z (ip), vehicle: saline) 96 % of control; (dose: 125.0 mg/kg/injection, schedule: Q01DX Z (ip), vehicle: saline) 91 % of control.

`CC1(C)C2CCC(=O)C1C2` (stereo unspecified): the T/C by setting is: under setting [1], 101 % of control; under setting [2], 96 % of control; under setting [3], 96 % of control.

For `CC(=O)O/N=C1\C(C)=[N+]([O-])[N+]([O-])=C1c1ccccc1`, the T/C is 98 % of control (dose: 50.0 mg/kg/injection, schedule: Q01DX009 (ip), vehicle: Klucel (hydroxypropylcellulose) (HPC)); 87 % of control (dose: 100.0 mg/kg/injection, schedule: Q01DX009 (ip), vehicle: Klucel (hydroxypropylcellulose) (HPC)); 90 % of control (dose: 200.0 mg/kg/injection, schedule: Q01DX009 (ip), vehicle: Klucel (hydroxypropylcellulose) (HPC)).

Regarding `CCOC(=O)/C(=C\c1ccc(N(C)C)cc1)c1nc2ccccc2[nH]1`, the T/C is 92 % of control (dose: 100.0 mg/kg/injection, schedule: Q04DX002 (ip), vehicle: saline with Tween-80); 92 % of control (dose: 200.0 mg/kg/injection, schedule: Q04DX002 (ip), vehicle: saline with Tween-80); 104 % of control (dose: 400.0 mg/kg/injection, schedule: Q04DX002 (ip), vehicle: saline with Tween-80).

Turning to `C=CCOCC1CO1` (stereo unspecified), the T/C reads like this: (dose: 75.0 mg/kg/injection, schedule: Q01DX001 (ip), vehicle: acetone) 101 % of control; (dose: 150.0 mg/kg/injection, schedule: Q01DX001 (ip), vehicle: acetone) 97 % of control; (dose: 300.0 mg/kg/injection, schedule: Q01DX001 (ip), vehicle: acetone) 105 % of control.

For the compound `O=C(COc1ccc(Cl)c(Cl)c1)NCc1ccc[n+](Cc2cc(Cl)ccc2S(=O)(=O)F)c1`, the T/C by setting is: under setting [1], 101 % of control; under setting [2], 114 % of control; under setting [3], 88 % of control.

Consider `COC(=O)CNc1cccc([N+](=O)[O-])c1`, for which the T/C by setting is: (dose: 100.0 mg/kg/injection, schedule: Q04DX003 (ip), vehicle: Klucel (hydroxypropylcellulose) (HPC)) 95 % of control; (dose: 200.0 mg/kg/injection, schedule: Q04DX003 (ip), vehicle: Klucel (hydroxypropylcellulose) (HPC)) 102 % of control; (dose: 400.0 mg/kg/injection, schedule: Q04DX003 (ip), vehicle: Klucel (hydroxypropylcellulose) (HPC)) 101 % of control.

As to `CC(=O)Nc1ccc(/C=N/NC(=S)Nc2cccc3cccnc23)cc1`, the T/C is 92 % of control under setting [4], 97 % of control under setting [5] and 97 % of control under setting [6].

With `Cc1ccc(Nc2ccc(C)cc2[N+](=O)[O-])cc1`, the T/C was 105 % of control (dose: 100.0 mg/kg/injection, schedule: Q01DX001 (ip), vehicle: carboxymethylcellulose (CMC)); 102 % of control (dose: 200.0 mg/kg/injection, schedule: Q01DX001 (ip), vehicle: carboxymethylcellulose (CMC)); 94 % of control (dose: 400.0 mg/kg/injection, schedule: Q01DX001 (ip), vehicle: carboxymethylcellulose (CMC)).

Regarding `CN1CCCC(OC(=O)N(C)C)C1` (stereo unspecified), the T/C is 98 % of control (dose: 100.0 mg/kg/injection, schedule: Q04DX003 (ip), vehicle: saline); 98 % of control (dose: 200.0 mg/kg/injection, schedule: Q04DX003 (ip), vehicle: saline); 98 % of control (dose: 400.0 mg/kg/injection, schedule: Q04DX003 (ip), vehicle: saline).

For the compound `CC[CH2][Sn]([CH2]CC)([CH2]CC)[O][Sn]([CH2]CC)([CH2]CC)[CH2]CC`, the T/C (dose: 0.5 mg/kg/injection, schedule: Q01DX009 (ip), vehicle: saline) was 95 % of control; the T/C (dose: 1.0 mg/kg/injection, schedule: Q01DX009 (ip), vehicle: saline) is 100 % of control; the T/C (dose: 1.0 mg/kg/injection, schedule: Q04DX003 (ip), vehicle: saline with Tween-80) is 97 % of control; the T/C (dose: 2.0 mg/kg/injection, schedule: Q01DX009 (ip), vehicle: saline) was 93 % of control; the T/C (dose: 2.0 mg/kg/injection, schedule: Q04DX003 (ip), vehicle: saline with Tween-80) is 90 % of control.

On to `Cc1nc2c(Cl)cc(Cl)cc2c2c1-c1ccccc1C2=O`, for which the T/C reads like this: (dose: 100.0 mg/kg/injection, schedule: Q04DX003 (ip), vehicle: acetone) 89 % of control; (dose: 200.0 mg/kg/injection, schedule: Q04DX003 (ip), vehicle: acetone) 89 % of control; (dose: 400.0 mg/kg/injection, schedule: Q04DX003 (ip), vehicle: acetone) 97 % of control.

On to `Cc1cccc(C[As](=O)(O)O)c1`, for which the T/C is, setting by setting: (dose: 12.5 mg/kg/injection, schedule: Q04DX003 (ip), vehicle: Klucel (hydroxypropylcellulose) (HPC)) 97 % of control; (dose: 25.0 mg/kg/injection, schedule: Q04DX003 (ip), vehicle: Klucel (hydroxypropylcellulose) (HPC)) 111 % of control.

Turning to `c1ccc(Nc2nnc(Nc3ccccn3)c3ccccc23)nc1`, the T/C is, setting by setting: under setting [1], 95 % of control; under setting [2], 93 % of control; under setting [3], 96 % of control.

With `COC(OC)c1[nH]c(=S)[nH]c(=O)c1Cc1ccccc1Cl`, the T/C was 97 % of control (dose: 100.0 mg/kg/injection, schedule: Q04DX002 (ip), vehicle: Klucel (hydroxypropylcellulose) (HPC)); 97 % of control (dose: 200.0 mg/kg/injection, schedule: Q04DX002 (ip), vehicle: Klucel (hydroxypropylcellulose) (HPC)); 105 % of control (dose: 400.0 mg/kg/injection, schedule: Q04DX002 (ip), vehicle: Klucel (hydroxypropylcellulose) (HPC)).

In the case of `C=C1C(=O)OCC2(C)CCCCC12` (stereo unspecified), the T/C is 101 % of control (dose: 10.0 mg/kg/injection, schedule: Q04DX003 (ip), vehicle: saline) and 116 % of control (dose: 20.0 mg/kg/injection, schedule: Q04DX003 (ip), vehicle: saline).

For the compound `O=C1CCCCCN1`, the T/C under setting [4] was 101 % of control; the T/C (dose: 100.0 mg/kg/injection, schedule: Q01DX009 (ip), vehicle: saline) is 100 % of control; the T/C (dose: 100.0 mg/kg/injection, schedule: Q04DX002 (ip), vehicle: other) was 98 % of control; the T/C under setting [5] was 101 % of control; the T/C (dose: 200.0 mg/kg/injection, schedule: Q01DX009 (ip), vehicle: saline) is 100 % of control; the T/C (dose: 200.0 mg/kg/injection, schedule: Q04DX002 (ip), vehicle: other) was 95 % of control. The T/C is, setting by setting: under setting [6], 103 % of control; (dose: 400.0 mg/kg/injection, schedule: Q04DX002 (ip), vehicle: other) 101 % of control.

In the case of `CCC1CN2C(=N1)c1ccccc1-c1cc(Br)ccc12` (stereo unspecified), the T/C is 104 % of control (dose: 2.5 mg/kg/injection, schedule: Q01DX009 (ip), vehicle: Klucel (hydroxypropylcellulose) (HPC)); 100 % of control (dose: 2.5 mg/kg/injection, schedule: Q04DX003 (ip), vehicle: Klucel (hydroxypropylcellulose) (HPC)); 98 % of control (dose: 5.0 mg/kg/injection, schedule: Q01DX009 (ip), vehicle: Klucel (hydroxypropylcellulose) (HPC)); 100 % of control (dose: 5.0 mg/kg/injection, schedule: Q04DX003 (ip), vehicle: Klucel (hydroxypropylcellulose) (HPC)); 116 % of control (dose: 10.0 mg/kg/injection, schedule: Q01DX009 (ip), vehicle: Klucel (hydroxypropylcellulose) (HPC)); 96 % of control (dose: 10.0 mg/kg/injection, schedule: Q04DX003 (ip), vehicle: Klucel (hydroxypropylcellulose) (HPC)).
